We go through 7 compounds from PMC6356742, “Novel Characteristics of Mitochondrial Electron Transport Chain from Eimeria tenella” (Genes, 2019).

“Also recorded” adds a separate entry of the source. Like-named read-outs stand apart in the source and are kept apart here. Where only a bound is given, the exact number is not on record here.

In general, IC50 refers to the concentration that inhibits the measured activity by half.

Assay [1] deals with succinate-cytochrome c reductase activity (Complex II-III). As to the kind of experiment: Inhibition of succinate-cytochrome c reductase activity (Complex II-III) of E. tenella mitochondria-rich fraction. It is filed as biochemical, Eimeria tenella. The conditions noted are these: for IC50: E. tenella mitochondria-rich fraction, complex II-III activity, read-out: IC50 of Succinate-cyt c Activity. The protocol:
(§1) All enzyme assays were performed using 5–10 µg of the mitochondria-rich fraction using black quartz cuvettes in 0.6 mL reaction mixture at 25 °C. The reagents used in each assay were mixed with a reaction buffer containing 50 mM potassium phosphate (pH 7.4) (KPi Buffer) and 2 mM EDTA.
Cytochrome c–linked NADH, G3P, malate, succinate, and DHO dehydrogenase activities were determined in a reaction mixture containing 30 µM horse heart cytochrome c and 2 mM KCN at 550 nm (ε = 19 mM^−1 cm^−1) by adding 0.2 mM NADH, 5 mM malate, 5 mM G3P, 8.3 mM succinate, and 0.4 mM DHO, respectively, into the reaction buffer.
(§2) […]; As the positive control for complex II-III inhibition assay, 0.1 μM of stigmatellin (complex III inhibitor) was used.

The test system of assay [2] is NADH oxidase activity (NDH-2-Complex III-IV). As to the kind of experiment: NADH oxidase activity (NDH-2-Complex III-IV) of E. tenella mitochondria-rich fraction. It counts as biochemical, Eimeria tenella. The conditions noted are these: for NADH oxidase specific activity after addition: consecutive additions: 2 mM KCN, then 2 mM fumarate, then 5 mM malonate, without additions 5.9 ± 0.9, experiment C.

Assay [3] relates to complex II. More on the design: method as in PMID 19505951. The conditions noted are these: read-out: IC50 for complex II from L. donovani; cited from earlier work.
Assay [4] relates to Succinate-cyt c activity. The conditions noted are these: Rat; cited from earlier work.
The test system of assay [5] is complex II. More on the design: method as in PMID 19505951. The note with it: read-out: IC50 for complex II from Trypanosoma brucei; cited from earlier work.
The subject of assay [6] is complex II. On the set-up: method as in PMID 19505951. The note with it: read-out: IC50 for complex II from T. cruzi; cited from earlier work.
Assay [7] has as its system Succinate-cyt c activity. The conditions noted are these: Porcine; cited from earlier work.
The target of the next assay is E. tenella complex II (Eimeria tenella, UniProt U6KGY0+U6KWN9). Briefly: Inhibition of succinate-dUQ (SQR) activity of E. tenella complex II. It is filed as biochemical. The note with it: for Inhibition of E. tenella complex II: even at higher concentration of 50 μM. On the procedure: as §1
Sequence of E. tenella complex II (U6KGY0 entry or part of it): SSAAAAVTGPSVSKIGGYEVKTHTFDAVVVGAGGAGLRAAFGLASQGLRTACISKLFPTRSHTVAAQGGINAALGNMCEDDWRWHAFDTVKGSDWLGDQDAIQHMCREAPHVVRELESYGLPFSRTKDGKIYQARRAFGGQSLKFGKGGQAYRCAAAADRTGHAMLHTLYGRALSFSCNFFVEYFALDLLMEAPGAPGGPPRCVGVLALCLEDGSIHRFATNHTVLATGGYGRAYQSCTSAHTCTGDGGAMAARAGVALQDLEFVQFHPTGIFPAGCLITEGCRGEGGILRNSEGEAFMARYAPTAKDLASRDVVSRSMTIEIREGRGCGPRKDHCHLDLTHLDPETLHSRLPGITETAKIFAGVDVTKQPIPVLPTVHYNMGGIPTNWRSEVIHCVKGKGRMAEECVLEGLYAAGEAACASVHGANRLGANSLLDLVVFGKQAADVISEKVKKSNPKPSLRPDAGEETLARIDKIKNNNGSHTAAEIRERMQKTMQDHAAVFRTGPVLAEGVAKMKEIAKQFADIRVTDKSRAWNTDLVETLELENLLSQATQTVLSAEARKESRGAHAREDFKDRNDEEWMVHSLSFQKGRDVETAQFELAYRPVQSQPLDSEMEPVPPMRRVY
Sequence of E. tenella complex II (U6KWN9 entry or part of it): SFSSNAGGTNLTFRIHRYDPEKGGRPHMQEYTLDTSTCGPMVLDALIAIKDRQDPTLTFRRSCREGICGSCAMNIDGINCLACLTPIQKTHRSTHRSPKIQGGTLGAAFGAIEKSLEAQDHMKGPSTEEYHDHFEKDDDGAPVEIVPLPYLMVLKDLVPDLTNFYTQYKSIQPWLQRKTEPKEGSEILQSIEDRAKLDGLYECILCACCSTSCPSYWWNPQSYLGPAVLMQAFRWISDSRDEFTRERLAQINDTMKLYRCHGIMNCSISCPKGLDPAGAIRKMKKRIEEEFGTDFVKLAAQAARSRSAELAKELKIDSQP
Individual G3PDH, MQO, SDH, and DHODH activities were assayed at 278 nm in the presence of each substrate as described above, however, instead of cytochrome c, 50 µM of decylubiquinone (dUQ) (ε = 15 mM^−1 cm^−1) was added. The NDH-2 activity was measured following the consumption of NADH at 340 nm.
as §2

For assay [8], the system named is complex II. More on the design: method as in PMID 19505951. The conditions noted are these: read-out: IC50 for complex II from Leishmania tarentolae; cited from earlier work.
The next assay concerns P. y. yoelii complex II. The conditions noted are these: cited from earlier work; for IC50: P. y. yoelii, read-out: IC50 of Succinate-cyt c Activity.
The subject of a further assay is bovine complex II. The conditions noted are these: cited from earlier work.
A further assay relates to Ascaris suum complex II. The note with it: cited from earlier work.

In the case of `C/C=C(C)/C=C/C=C/[C@H](OC)[C@@H](C)[C@@H](OC)[C@@H](C)CCc1oc2c(O)c(OC)cc(OC)c2c(=O)c1C` [Stigmatellin, stigmatellin], the “Percentage inhibition of succinate-cyt c activity” value in assay [1] (E. tenella, 100 nM stigmatellin, positive control for complex III inhibition) is reported as 78.4 ± 13.1% ^2.

For the compound `O=C(O)/C=C/C(=O)O` [fumarate], in assay [2], the “NADH oxidase specific activity after addition” value was 1.3 ± 0.3 μmol/min/mg protein.

As for `O=C(O)CC(=O)O` [malonate], the “Effect on NADH oxidase / fumarate-dependent NADH oxidation activity” value in [2] (2 mM KCN on NADH oxidase, 5 mM malonate on fumarate-restored activity in presence of KCN) was “abolished; also recorded: completely inhibited”. Also, the “NADH oxidase specific activity after addition” value in assay [2] is on record as −0.5 ± 0.3 μmol/min/mg protein.

Regarding `Cc1cc(O)c2c(c1)O[C@@]1(C)CC[C@H]3C(C)(C)CCC[C@]34CO[C@@H]2[C@H]41` [Siccanin, siccanin], the IC50 was 1.17 µM with complex II [3]; 9.3 ± 1 µM in the assay on Succinate-cyt c activity [4]; 4 ± 0.6 µM in [1]; 0.368 µM in the assay with complex II [5]; 1.48 µM in the assay on complex II [6]; 861 ± 822 µM in the assay with Succinate-cyt c activity [7]. The half-inhibitory concentration (IC50) on E. tenella complex II (E. tenella, SQR activity of complex II, read-out: IC50 determined for succinate-dUQ activity) was > 50 µM; with complex II [8] it was 0.19 µM. In addition, the “Inhibition of the SQR activity of complex II” value on E. tenella complex II (E. tenella) is “did not inhibit”. At E. tenella complex II, the “Inhibition of E. tenella complex II” value is listed as “did not inhibit”.

In the case of `COc1[nH]c(=O)c(C(=O)[C@@H](C)C[C@H](C)[C@@H](Cl)CCl)c(O)c1OC` [Atpenin A5, atpenin A5], the IC50 in the assay with P. y. yoelii complex II is 4.2 ± 0.2 µM; in the assay with bovine complex II, 0.004 µM; with Succinate-cyt c activity [4], 0.007 ± 0.0003 µM; in [1], > 50 µM. Besides, the “Fold lower sensitivity of P. y. yoelii complex II to atpenin A5” value in the assay with P. y. yoelii complex II is listed as “about 600 fold”.

Regarding `CC1=C(C(=O)Nc2ccccc2)SCCO1` [Carboxin, carboxin], the IC50 is 3.6 ± 1 µM in the assay on P. y. yoelii complex II, 1 µM in the assay with bovine complex II, 3.8 ± 0.1 µM in the assay with Succinate-cyt c activity [4] and > 50 µM in [1]. Besides, the “Inhibition of E. tenella complex II” value at E. tenella complex II is reported as “did not inhibit”.

For the compound `CC(C)Oc1cccc(NC(=O)c2ccccc2C(F)(F)F)c1` [Flutolanil, flutolanil], the IC50 with Ascaris suum complex II is 0.081 µM; in the assay on P. y. yoelii complex II it was > 100 µM; with Succinate-cyt c activity [4] it was > 100 µM; in assay [1], > 50 µM; with Succinate-cyt c activity [7], > 50 µM. Moreover, the “Inhibition of E. tenella complex II” value at E. tenella complex II is on record as “did not inhibit”.
